# Assay results: US20240254077A1, “METHODS OF TREATING CHRONIC OBSTRUCTIVE PULMONARY DISEASE INCLUDING COMPOUNDS USEFUL THEREIN” (The Trustees of Columbia University in the City of New York, priority 2021, published 2024)
# Entries after “also recorded” stand apart in the source; their conditions may differ. Where two headings read alike, the source gives them in different places.
# Experiments:
# MMP-1 = MMP-1 expression and secretion in CSE exposed small airway epithelial cell (SAEC) cultures; assay type: cell-based, human; details: for MMP1 expression / MMP1 induction: SAEC, 5% CSE, varying doses (dose response)
# Protocol: FIG. 2: Fluoxetine inhibits MMP-1 production and TLR-4 signaling in CSE exposed SAEC cultures.
# (A) Fluoxetine. (B) Derivative 2. (C) Derviative 5. SAEC cultures were treated with 5% CSE and varying doses of Fluoxetine, Derivative 2 and Derivative 5, respectively. Treatment with the derivatives decreased MMP1 induction after cigarette smoke treatment.
# The compounds in this clinical set have all been tested and utilized in humans for various indications. These molecules were tested for their capacity to modulate MMP-1 smoke induced transcriptional activation. […] Prior work in our lab was critical in establishing MMP-1 as a destructive agent in the progression of COPD in humans. As such, we next exposed human small airway epithelial cells to cigarette smoke extract followed by treatment with fluoxetine.
# Aim 1b: Determining if potential CL(s) maintain their ability to inactivate MMP1 transcription and inflammatory pathways via inhibition of TLR4 signaling in human small airway epithelial cells. For each positive hit and fluoxetine, the DRC is used to derive their respective IC50's and Hill slopes. The concentration required to achieve a 50%, 75% and 99.9% fractional effect is calculated using the formula: [Cf]=[(fraction/100-fraction) ^(1/Hill slope)]IC50. The effect of each calculated concentration on cell viability is tested in triplicate on primary human small airway epithelial cell (hSAEC) culture via MTT assay. […] The chosen concentrations are tested on SAEC cultures exposed to 5% cigarette smoke extract for 24 h to assess their effects on MMP1 and TLR4 expression via mRNA extraction to analyze transcript levels by real-time RT-PCR. Culture media is collected and MMP1 secretion assessed by ELISA (R&D Systems, MN). Protein collected for western blot is used to assess IRAK phosphorylation, a known downstream effector of TLR4 activity. In addition, PCR arrays (ThermoFisher, MA) that measure the expression of cytokines that have been implicated in the pathogenesis of COPD, their receptors and the expression of transcription factors that regulate the cellular response to oxidants and CSE exposure are used to determine the ability of each derivative to suppress inflammatory signaling in smoke exposed cells.
# SAEC cultures were treated with 5% CSE and varying doses of Fluoxetine, Derivative 2 and Derivative 5, respectively. Treatment with the derivatives decreased MMP1 induction after cigarette smoke treatment.
# MMP1 promoter = MMP1 promoter luciferase reporter screen in CSE-treated transfected HEK 293T cells; assay type: cell-based, human; details: NIH clinical collection screen
# Protocol: (§1) These molecules were tested for their capacity to modulate MMP-1 smoke induced transcriptional activation. […] As such, we next exposed human small airway epithelial cells to cigarette smoke extract followed by treatment with fluoxetine.
# smoke exposed mice = assay: Cigarette smoke exposed mice, inflammatory BALF cell counts; assay type: in vivo, mouse; details: cigarette smoke 10 days, oral
# From the text: FIG. 4: Oral fluoxetine treatment in smoke exposed mice reduces inflammatory BALF cell counts. […] (B) Representative cytospin DifQuik stains for each experimental group.
# TLR-4 = TLR-4 signaling (TLR-4 expression, phospho-IRAK) in CSE exposed SAEC cultures; assay type: cell-based, human
# Protocol: as §1
# For each positive hit and fluoxetine, the DRC is used to derive their respective IC50's and Hill slopes. The concentration required to achieve a 50%, 75% and 99.9% fractional effect is calculated using the formula: [Cf]=[(fraction/100-fraction) ^(1/Hill slope)]IC50. The effect of each calculated concentration on cell viability is tested in triplicate on primary human small airway epithelial cell (hSAEC) culture via MTT assay. […] The chosen concentrations are tested on SAEC cultures exposed to 5% cigarette smoke extract for 24 h to assess their effects on MMP1 and TLR4 expression via mRNA extraction to analyze transcript levels by real-time RT-PCR. Culture media is collected and MMP1 secretion assessed by ELISA (R&D Systems, MN). Protein collected for western blot is used to assess IRAK phosphorylation, a known downstream effector of TLR4 activity.
# smoke exposed rabbits = details: cigarette smoke 16 weeks, oral; for mean linear intercept (morphometric analysis): versus smoke alone
# From the text: (C) Representative H&E stains for each treatment group.
# As the next step, we observed the ability of oral duloxetine to inhibit cigarette smoke induced up-regulation of MMP1 and lung destruction in a rabbit model. Rabbits were utilized for these experiments since unlike mice they produce MMP-1. Rabbits were exposed to cigarette smoke for 16 weeks while receiving placebo or orally administered duloxetine.
# To assess the effects of SSRIs on the cigarette smoke induced inflammatory response, we utilized smoke-exposed mice.
# IL-8 = IL-8 expression in CSE treated SAEC, dose response; assay type: cell-based, human; details: 5% CSE, varying doses
# MMP1 = MMP1 concentration, fluoxetine derivatives on SAEC (FIG. 6); assay type: cell-based, human
# From the text: FIG. 6: MMP1 activity—fluoexetine derivatives on SAEC. Comparison of Derivatives 1-6 on MMP1 concentration.
compound,measurement,setting,value
CNCCC(Oc1ccc(C(F)(F)F)cc1)c1ccccc1 (stereo not shown) [Fluoxetine],MMP1 present in the media (secretion),MMP-1; 5% CSE exposed SAEC cultures,decreased MMP-1 expression and secretion; also recorded: decreases MMP1 present in the media
same,expression of MMP1 transcript (PCR),MMP-1; 5% CSE exposed SAEC cultures,decreased MMP-1 expression
same,expression of MMP1 transcript (PCR),"MMP-1; 5% CSE exposed SAEC cultures, listed as fluoxetine",inhibits expression of MMP1 transcript
same,inhibition of cigarette smoke induced MMP-1 production (MMP-1 smoke induced transcriptional activation),MMP1 promoter,potent inhibitors
same,inflammatory cell counts in lung lavage fluid (BALF),smoke exposed mice,decreases the cell count
same,inflammatory cell counts in lung lavage fluid (BALF),smoke exposed mice; listed as fluoxetine,decreased inflammatory cell counts
same,TLR-4 expression,TLR-4,decreased expression; also recorded: abrogates the CSE induced increase in TLR-4 expression
same,phospho-IRAK (downstream effector of TLR-4),TLR-4,decreased expression; also recorded: abrogates
CNCC[C@H](Oc1cccc2ccccc12)c1cccs1 [Duloxetine],MMP1 in bronchoalveolar lavage fluid (ELISA),smoke exposed rabbits,decreases MMP1 present in the BALF
same,MMP1 in bronchoalveolar lavage fluid (ELISA),smoke exposed rabbits; listed as duloxetine,reduced MMP1 levels
same,mean linear intercept (morphometric analysis),smoke exposed rabbits,significantly reduced mean linear intercept
same,mean linear intercept (morphometric analysis),smoke exposed rabbits; listed as duloxetine,decreased mean linear intercepts
same,inhibition of cigarette smoke induced MMP-1 production (MMP-1 smoke induced transcriptional activation),MMP1 promoter,potent inhibitors
"CCNC(=O)N(C)CCC(Oc1ccc(C(F)(F)F)cc1)c1ccccc1 (stereo not shown) [Derivative 2, 3-ethyl-1-methyl-1-(3-phenyl-3-(4-(trifluoromethyl)phenoxy)propyl)urea]",MMP1 expression / MMP1 induction,MMP-1,reduces MMP1 expression
same,IL-8 expression,IL-8,reduces IL-8 expression
same,MMP1 concentration,MMP1; 5 μM,significantly decreasd MMP1 concentrations
same,MMP1 concentration,MMP1; 10 μM,significantly decreasd MMP1 concentrations
"Cc1ccc(S(=O)(=O)N(C)CCC(Oc2ccc(C(F)(F)F)cc2)c2ccccc2)cc1 (stereo not shown) [Derivative 5, N,4-dimethyl-N-(3-phenyl-3-(4-(trifluoromethyl)phenoxy)propyl)benzenesulfonamide]",MMP1 expression / MMP1 induction,MMP-1,reduces MMP1 expression
same,IL-8 expression,IL-8,reduces IL-8 expression
same,MMP1 concentration,MMP1; 5 μM,significantly decreasd MMP1 concentrations
same,MMP1 concentration,MMP1; 10 μM,significantly decreasd MMP1 concentrations
"CN(CCC(Oc1ccc(C(F)(F)F)cc1)c1ccccc1)S(C)(=O)=O (stereo not shown) [Derivative 6, N-methyl-N-(3-phenyl-3-(4-(trifluoromethyl)phenoxy)propyl)methanesulfonamide]",MMP1 concentration,MMP1; 5 μM,significantly decreasd MMP1 concentrations
same,MMP1 concentration,MMP1; 10 μM,significantly decreasd MMP1 concentrations
"CCNC(=S)N(C)CCC(Oc1ccc(C(F)(F)F)cc1)c1ccccc1 (stereo not shown) [Derivative 3, 3-ethyl-1-methyl-1-(3-phenyl-3-(4-(trifluoromethyl)phenoxy)propyl)thiourea]",MMP1 concentration,MMP1; 2 μM,did not show any reduction of MMP1
same,MMP1 concentration,MMP1; 5 μM,did not show any reduction of MMP1
same,MMP1 concentration,MMP1; 10 μM,significant reduction of MMP1
"CCC(=O)N(C)CCC(Oc1ccc(C(F)(F)F)cc1)c1ccccc1 (stereo not shown) [Derivative 4, N-methyl-N-(3-phenyl-3-(4-(trifluoromethyl)phenoxy)propyl)propionamide]",MMP1 concentration,MMP1; 2 μM,did not show any reduction of MMP1
same,MMP1 concentration,MMP1; 5 μM,did not show any reduction of MMP1
same,MMP1 concentration,MMP1; 10 μM,did not show any reduction of MMP1
"CCCCN(C)CCC(Oc1ccc(C(F)(F)F)cc1)c1ccccc1 (stereo not shown) [Derivative 1, N-methyl-N-(3-phenyl-3-(4-(trifluoromethyl)phenoxy)propyl)butan-1-amine]",MMP1 concentration,MMP1; 5 μM,significantly decreasd MMP1 concentrations
same,MMP1 concentration,MMP1; 10 μM,significantly decreasd MMP1 concentrations
